{
  "source": "patent US7557268B1",
  "about": "“Promoter for expression of a gene and response to infection or wounding” (priority 1999, dated 2009)",
  "test_system": "pAG2339 promoter deletion (gus reporter) in PR8-2, PR8-3, PR8-12",
  "assay_type": "cell-based, tobacco",
  "data": [
    {"smiles": "O=C(O)c1ccccc1O", "note": "[SA, salicylic acid]", "values": [
      {"measurement": "change of reporter gene activity (in words)", "result": "no significant change"}
    ]}
  ]
}
